This is an account of results in patent US8097654B2, “Radiolabeled 3-[3-(benzoyl-amido)benzyloxy]aspartic acid derivative and method of producing the same” (Suntory Holdings Limited, priority 2004, dated 2012).

Each structure is given as a SMILES string.

One experiment concerns the target T1, human EAAT3 (Homo sapiens, UniProt P43005).
T1 construct: expressed in transfected cells
T1 sequence (P43005 1-524): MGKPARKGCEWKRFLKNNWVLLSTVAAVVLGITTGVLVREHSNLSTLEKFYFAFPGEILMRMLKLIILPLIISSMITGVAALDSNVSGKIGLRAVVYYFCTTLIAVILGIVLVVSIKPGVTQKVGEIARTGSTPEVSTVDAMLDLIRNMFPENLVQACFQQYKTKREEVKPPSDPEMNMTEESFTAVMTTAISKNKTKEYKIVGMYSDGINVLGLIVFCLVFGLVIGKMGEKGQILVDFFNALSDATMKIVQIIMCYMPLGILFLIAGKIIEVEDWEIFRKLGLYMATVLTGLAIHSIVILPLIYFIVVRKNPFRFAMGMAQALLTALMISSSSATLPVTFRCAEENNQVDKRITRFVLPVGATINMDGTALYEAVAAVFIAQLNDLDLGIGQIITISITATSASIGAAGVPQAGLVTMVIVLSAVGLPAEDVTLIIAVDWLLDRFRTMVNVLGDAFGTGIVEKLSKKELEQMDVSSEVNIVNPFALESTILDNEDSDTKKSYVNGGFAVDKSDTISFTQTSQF
Briefly: Inhibition of [14C]-glutamic acid uptake by EAAT3 expressed in MDCK or COS-1 cells. It counts as cell-based. As to conditions: 1 μM L-[14C]-glutamic acid, 12 minutes. On the procedure:
(§1) In accordance with a known method (Shimamoto, K. et al., Mol. Pharmacol. 53, 195-201, 1998; Bioorg. Med. Chem. Lett. 10, 2407-2410, 2000), the inhibitory activity was assayed as the ability to inhibit the uptake of [^14C]-glutamic acid by human EAAT2 and EAAT3 stably expressed in MDCK (Madin-Darby canine kidney) cells or transiently expressed in COS-1 cells. The glutamate uptake activity was assayed by incubating a mixture of 1 μM of L-[^14C]-glutamic acid with a sample compound at a predetermined concentration for 12 minutes, lysing the cells and then measuring the radioactivity incorporated into the cells with a liquid scintillator. The amount of uptake was expressed in percentage by referring the amount of uptake in the absence of a test compound (i.e., the buffer alone) as 100% and referring the amount of uptake in a sodium-free solution as 0%.

The target in experiment [1] is T2, EAAT2 (Homo sapiens, UniProt P43004). The experiment in a line: Inhibition of [14C]-glutamic acid uptake by EAAT2 expressed in MDCK or COS-1 cells. The format is cell-based. Also on record: expressed in transfected cells. As to conditions: 1 μM L-[14C]-glutamic acid, 12 minutes. On the procedure: as §1
Another experiment deals with T3, EAAT5 (Homo sapiens, UniProt O00341).
T3 construct: expressed in transfected cells; host or cells: COS-1 cells (membrane preparation)
The experiment in a line: Saturation binding / Scatchard analysis, EAAT5 expressed on COS-1 cells. Particulars: COS-1 cell membrane preparation. On the procedure:
(§2) About 20 ml of a medium contained in a T-flask (150 cm^2) was inoculated with COS-1 cells expressing EAAT which were then incubated therein until they reached confluence. After aspiration of the medium, the cells were washed with about 10 ml of phosphate buffered saline (PBS). After adding 4 ml of 0.25% trypsin/1 mM EDTA and allowing to stand for 5 minutes, 6 ml of the medium was added and the cells were collected into a 50 ml tube. Then they were centrifuged at 1200 rpm for 2 minutes and the supernatant was aspirated. The residue was thoroughly homogenized in a binding buffer (50 mM Tris-HCl (pH 7.4), 120 mM NaCl, 5 mM KCl, 2.5 mM CaCl2, 1 mM MgCl2) with the use of a Polytron homogenizer on ice. The homogenate was centrifuged at 30,000×g at 4° C. for 20 minutes. […]
(§3) Then the reaction was ceased by filtering the mixture through a GF/C filter (Whatman) having been soaked in a 0.1% poly-L-lysine hydrobromide solution for an hour followed by washing with 20 mM Tris buffer. After drying the filter, a solid scintillator MeltiLex A (PerkinElmer) was melted-on and the radioactivity was measured with a β-counter. The radioactivity of the sample free from TFB-TBOA was referred to as the total binding amount, while the radioactivity of the sample containing TFB-TBOA was referred to as the nonspecific binding amount. Then the difference was calculated as the specific binding amount.

Experiment [2] addresses T2, EAAT2. The experiment in a line: Saturation binding / Scatchard analysis, EAAT2 expressed on COS-1 cells. Also on record: expressed in transfected cells; host or cells: COS-1 cells (membrane preparation). As to conditions: COS-1 cell membrane preparation. As to the method:
as §2, §3

A further experiment has as its target T4, EAAT4 (Homo sapiens, UniProt P48664).
T4 construct: expressed in transfected cells; host or cells: COS-1 cells (membrane preparation)
T4 sequence (P48664 1-564): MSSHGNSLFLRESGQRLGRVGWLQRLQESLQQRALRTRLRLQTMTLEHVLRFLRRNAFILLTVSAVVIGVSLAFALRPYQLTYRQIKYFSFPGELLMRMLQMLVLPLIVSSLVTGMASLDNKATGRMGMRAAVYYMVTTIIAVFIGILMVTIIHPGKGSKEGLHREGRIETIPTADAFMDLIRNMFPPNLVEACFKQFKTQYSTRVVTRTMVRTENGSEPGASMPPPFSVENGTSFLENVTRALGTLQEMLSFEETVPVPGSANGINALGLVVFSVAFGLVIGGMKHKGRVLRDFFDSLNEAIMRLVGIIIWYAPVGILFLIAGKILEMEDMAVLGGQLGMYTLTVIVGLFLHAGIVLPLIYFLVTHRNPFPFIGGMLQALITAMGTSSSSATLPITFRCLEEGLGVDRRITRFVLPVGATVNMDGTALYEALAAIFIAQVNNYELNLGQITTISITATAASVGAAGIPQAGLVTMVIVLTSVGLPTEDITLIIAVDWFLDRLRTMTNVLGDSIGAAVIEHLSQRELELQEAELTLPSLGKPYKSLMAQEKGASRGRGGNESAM
The experiment in a line: Saturation binding / Scatchard analysis, EAAT4 expressed on COS-1 cells. As to conditions: COS-1 cell membrane preparation. As to the method: as §2, §3

T2 sequence (P43004 whole entry): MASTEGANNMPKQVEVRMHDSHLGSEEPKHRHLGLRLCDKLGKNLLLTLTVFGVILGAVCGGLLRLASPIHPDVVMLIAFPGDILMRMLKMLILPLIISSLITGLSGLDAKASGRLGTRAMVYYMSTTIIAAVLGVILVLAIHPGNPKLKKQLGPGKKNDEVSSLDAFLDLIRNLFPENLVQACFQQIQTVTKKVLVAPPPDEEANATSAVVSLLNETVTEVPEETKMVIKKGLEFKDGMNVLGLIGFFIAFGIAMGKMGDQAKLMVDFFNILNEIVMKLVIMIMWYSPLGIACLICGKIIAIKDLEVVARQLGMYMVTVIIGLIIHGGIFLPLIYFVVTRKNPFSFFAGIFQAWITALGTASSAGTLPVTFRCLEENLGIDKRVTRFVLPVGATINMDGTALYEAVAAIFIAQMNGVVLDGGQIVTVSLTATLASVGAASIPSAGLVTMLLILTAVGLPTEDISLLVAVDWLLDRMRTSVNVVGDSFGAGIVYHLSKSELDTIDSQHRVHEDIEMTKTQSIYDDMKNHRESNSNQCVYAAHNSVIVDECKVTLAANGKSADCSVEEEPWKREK
T3 sequence (O00341 whole entry, species assumed): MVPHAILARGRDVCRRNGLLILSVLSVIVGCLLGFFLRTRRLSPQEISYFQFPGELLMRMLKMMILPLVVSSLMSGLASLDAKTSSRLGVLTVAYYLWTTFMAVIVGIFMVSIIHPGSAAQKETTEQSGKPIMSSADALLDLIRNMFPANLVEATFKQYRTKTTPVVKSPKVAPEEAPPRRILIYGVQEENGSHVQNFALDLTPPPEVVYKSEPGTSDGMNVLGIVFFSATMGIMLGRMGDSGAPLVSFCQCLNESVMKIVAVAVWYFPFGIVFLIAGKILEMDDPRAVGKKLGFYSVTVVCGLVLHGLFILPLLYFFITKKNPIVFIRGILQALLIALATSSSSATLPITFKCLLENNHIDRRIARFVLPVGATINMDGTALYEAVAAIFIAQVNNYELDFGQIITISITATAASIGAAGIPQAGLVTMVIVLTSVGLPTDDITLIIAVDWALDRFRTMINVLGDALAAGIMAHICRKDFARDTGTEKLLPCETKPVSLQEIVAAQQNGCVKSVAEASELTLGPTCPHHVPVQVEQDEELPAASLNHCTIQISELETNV

As usually defined, the IC50 is the concentration that inhibits the measured activity by half. A low value points to greater potency. `NC(C(=O)O)C(OCc1ccccc1)C(=O)O` [L-TBOA, threo-β-benzyloxyaspartic acid, reference compound]: the IC50 at human EAAT3 and against EAAT2 [1] was 1.3 ± 0.12 µM in each case.

Consider `N[C@H](C(=O)O)[C@H](OCc1cccc(NC(=O)c2ccc(I)cc2)c1)C(=O)O` [I-BzA-TBOA, (2S,3S)-3-[3-(4-iodobenzoylamino)benzyloxy]aspartic acid], for which the concentration for half-maximal inhibition (IC50) on human EAAT3 worked out at 0.056 ± 0.0018 µM; on EAAT2 [1], 0.0048 ± 0.00032 µM.

For orientation: Kd means the equilibrium constant for the complex coming apart. Low values mean higher affinity, high ones lower affinity. `[3H]CC([3H])c1ccc(C(=O)Nc2cccc(CO[C@H](C(=O)O)[C@H](N)C(=O)O)c2)cc1` (stereo partly drawn) [(^3H)Et-BzA-TBOA]: the equilibrium dissociation constant (Kd) on EAAT5 turned out to be 0.03 µM; on EAAT2 [2], 0.026 µM; at EAAT4, 0.013 µM.

In the case of `N[C@H](C(=O)O)[C@H](OCc1cccc(NC(=O)c2ccc(C(F)(F)F)cc2)c1)C(=O)O` [TFB-TBOA, reference compound], the concentration for half-maximal inhibition (IC50) stood at 0.028 ± 0.0018 µM at human EAAT3 and 0.0019 ± 0.0001 µM against EAAT2 [1].
